Experimental data as given in patent publication US10392368B2, “Pyrazolo and triazolo bicyclic compounds as JAK kinase inhibitors” (THERAVANCE BIOPHARMA R&D IP, LLC, priority 2017, dated 2019).
Where two headings read alike, the source gives them in different places.

What was measured:
[1] = target: T1, JAK3 (Homo sapiens, UniProt P52333); experiment: Biochemical JAK3 kinase assay (LanthaScreen); parameters: GST; purchased Life Technologies; conditions: for Ki: read-out: JAK 3 (pKi) (converted)
T1 sequence (P52333 1-1124): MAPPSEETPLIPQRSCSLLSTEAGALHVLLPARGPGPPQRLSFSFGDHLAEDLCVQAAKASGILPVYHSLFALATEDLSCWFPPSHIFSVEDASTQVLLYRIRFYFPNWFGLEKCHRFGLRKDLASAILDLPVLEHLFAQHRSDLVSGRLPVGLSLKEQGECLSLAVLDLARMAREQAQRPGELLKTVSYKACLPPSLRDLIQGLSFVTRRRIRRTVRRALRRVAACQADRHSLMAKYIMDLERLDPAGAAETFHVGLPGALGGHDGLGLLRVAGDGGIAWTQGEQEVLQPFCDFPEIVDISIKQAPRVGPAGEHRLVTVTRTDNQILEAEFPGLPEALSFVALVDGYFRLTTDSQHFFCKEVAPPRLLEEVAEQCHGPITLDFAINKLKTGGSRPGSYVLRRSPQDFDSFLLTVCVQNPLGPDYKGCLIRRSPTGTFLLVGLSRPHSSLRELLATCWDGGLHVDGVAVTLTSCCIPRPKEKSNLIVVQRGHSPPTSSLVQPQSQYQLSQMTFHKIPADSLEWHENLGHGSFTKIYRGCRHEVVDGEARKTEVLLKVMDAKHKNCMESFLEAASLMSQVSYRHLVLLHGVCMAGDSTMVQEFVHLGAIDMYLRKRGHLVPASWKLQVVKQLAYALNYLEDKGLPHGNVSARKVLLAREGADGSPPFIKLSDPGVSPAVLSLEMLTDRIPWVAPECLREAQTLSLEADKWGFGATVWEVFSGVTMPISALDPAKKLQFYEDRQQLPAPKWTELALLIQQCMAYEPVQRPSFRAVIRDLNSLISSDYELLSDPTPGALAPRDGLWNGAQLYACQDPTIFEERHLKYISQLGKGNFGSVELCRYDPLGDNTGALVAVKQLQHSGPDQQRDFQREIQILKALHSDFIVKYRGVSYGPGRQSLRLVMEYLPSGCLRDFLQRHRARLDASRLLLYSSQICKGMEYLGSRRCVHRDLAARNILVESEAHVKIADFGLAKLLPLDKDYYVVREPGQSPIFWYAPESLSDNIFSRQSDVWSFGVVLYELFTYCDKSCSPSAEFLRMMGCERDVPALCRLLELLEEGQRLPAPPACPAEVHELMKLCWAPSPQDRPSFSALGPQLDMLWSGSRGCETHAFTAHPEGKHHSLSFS
Method in brief: (§1)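 TR-FRET readout (520/495 nm) using Tb-labelled pTyr701 antibody after EDTA stop, following 1 h ATP-started phosphorylation of GFP-STAT1 by recombinant GST-JAK. Compounds preincubated 1 h with enzyme and substrate; pIC50 from 4-parameter fit, Cheng-Prusoff gives pKi.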

[2] = target: T2, JAK1 (Homo sapiens, UniProt P23458); experiment: Biochemical JAK1 kinase assay (LanthaScreen); conditions: for Ki: read-out: JAK 1 (pKi) (converted)
T2 construct: GST; purchased Life Technologies
T2 sequence (P23458 whole entry): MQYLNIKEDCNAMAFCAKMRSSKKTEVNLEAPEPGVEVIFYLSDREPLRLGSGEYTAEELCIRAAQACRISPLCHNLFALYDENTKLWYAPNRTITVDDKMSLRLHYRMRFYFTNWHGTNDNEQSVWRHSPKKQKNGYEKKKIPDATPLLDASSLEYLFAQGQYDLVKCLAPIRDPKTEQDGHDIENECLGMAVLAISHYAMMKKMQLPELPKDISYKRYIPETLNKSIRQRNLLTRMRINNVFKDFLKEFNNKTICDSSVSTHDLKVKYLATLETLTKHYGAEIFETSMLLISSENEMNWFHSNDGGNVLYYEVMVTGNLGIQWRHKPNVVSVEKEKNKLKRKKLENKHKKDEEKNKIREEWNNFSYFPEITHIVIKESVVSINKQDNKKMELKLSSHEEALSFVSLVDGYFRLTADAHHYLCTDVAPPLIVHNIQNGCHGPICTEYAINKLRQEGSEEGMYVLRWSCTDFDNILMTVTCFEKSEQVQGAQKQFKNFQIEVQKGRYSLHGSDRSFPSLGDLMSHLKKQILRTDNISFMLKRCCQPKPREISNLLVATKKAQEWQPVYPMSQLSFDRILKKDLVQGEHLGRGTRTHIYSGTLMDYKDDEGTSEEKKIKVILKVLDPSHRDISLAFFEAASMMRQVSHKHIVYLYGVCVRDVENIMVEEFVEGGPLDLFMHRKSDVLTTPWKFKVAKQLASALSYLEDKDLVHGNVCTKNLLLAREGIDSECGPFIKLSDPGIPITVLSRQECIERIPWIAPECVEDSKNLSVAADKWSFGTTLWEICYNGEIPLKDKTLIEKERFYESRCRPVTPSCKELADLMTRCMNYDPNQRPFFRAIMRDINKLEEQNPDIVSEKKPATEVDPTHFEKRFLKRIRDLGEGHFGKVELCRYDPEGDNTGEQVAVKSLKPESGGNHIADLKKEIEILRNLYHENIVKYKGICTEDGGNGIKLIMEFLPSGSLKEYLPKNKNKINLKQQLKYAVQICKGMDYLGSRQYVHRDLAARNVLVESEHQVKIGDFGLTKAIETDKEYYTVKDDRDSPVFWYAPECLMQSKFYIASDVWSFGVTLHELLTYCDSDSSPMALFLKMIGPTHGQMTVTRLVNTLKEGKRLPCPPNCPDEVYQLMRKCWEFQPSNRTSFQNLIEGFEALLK
Method in brief: as §1

[3] = tested on: IL-2 stimulated pSTAT5 in Tall-1 T cells; experiment: Cellular JAK3 potency assay: inhibition of IL-2 stimulated pSTAT5 in Tall-1 T cells; type: cell-based, human; conditions: for IC50: Homo sapiens, read-out: Tall-1 (pIC50) (converted)
Method in brief: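 Tall-1 human T cells were preincubated with compound for 1 h at 37° C, then stimulated with IL-2 (300 ng/ml final) for 30 min. STAT5 phosphorylation in lysates was read by AlphaLisa bead emission, and IC50 from inhibition curves is given as pIC50 (mean±SD).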

[4] = selectivity: difference of pKi JAK3 and pKi JAK1
[5] = IL-2 stimulated pSTAT5 in Tall-1 T cells
[6] = TALL-1, IL-2 stimulated pSTAT5 in Tall-1 T cells
[7] = selectivity JAK3 over JAK1, difference of pKi
[8] = IL-2 stimulated pSTAT5, Tall-1 T cells

| Structure (SMILES) | JAK 3 (pKi) [1] | JAK3 (pKi)-JAK1 (pKi) [1, 4] | JAK 1 (pKi) [2] | Tall-1 (pIC50) [3, 5] | Ki [1] | Ki [2] | IC50 [3, 6] | JAK3 (pKi)-JAK1 (pKi) [1, 7] | Tall-1 (pIC50) [3, 8] | IC50 ([3]; TALL-1, IL-2 stimulated pSTAT5, Tall-1 T cells) |
| --- | --- | --- | --- | --- | --- | --- | --- | --- | --- | --- |
| C=CC(=O)N1CC[C@H](COc2nc(-c3ccc(O)cc3)nc3[nH]ncc23)C1 [Compound 2-7] | B (a pKi value between 9 and 10 (Ki between 1 nM and 0.1 nM)) | A (a value of 3 or above) | E (a pKi value of 7 or below (Ki of 100 nM or above)) | B (a pIC50 value between 6.7 (included) and 7.5 (IC50 between 200 nM and 32 nM)) |  |  |  |  |  |  |
| COC[C@H]1CCN(C/C=C/C(=O)N2CC(COc3cc(-c4ccc(O)cc4)cc4[nH]ncc34)C2)C1 [Compound 3-134] |  | A (a value of 3 or above) |  |  | 0.0001 to 0.001 µM | > 0.1 µM | 0.0316 to 0.2 µM |  |  |  |
| C=CC(=O)N1CC[C@H](Oc2nc(-c3ccc(O)cc3)nc3[nH]ncc23)C1 [Compound 1-6] |  | A (a value of 3 or above) |  |  | 0.0001 to 0.001 µM | > 0.1 µM | 0.2 to 1 µM |  |  |  |
| CN1CCC[C@@H]1/C=C/C(=O)N1CC[C@H](Oc2cc(-c3ccc(O)cc3)cc3[nH]ncc23)C1 [Compound 15, (E)-1-((S)-3-((6-(4-hydroxyphenyl)-1H-indazol-4-yl)oxy)pyrrolidin-1-yl)-3-((R)-1-methylpyrrolidin-2-yl)prop-2-en-1-one] |  | A (a value of 3 or above) |  |  | 0.0001 to 0.001 µM | > 0.1 µM | 0.2 to 1 µM |  |  |  |
| C=CC(=O)N1CC[C@H](Oc2nc(-c3ccc(O)c(Cl)c3)cc3[nH]nc(C)c23)C1 [Compound 1-35] |  | A (a value of 3 or above) |  |  | < 0.0001 µM | 0.01 to 0.1 µM | < 0.0316 µM |  |  |  |
| C=CC(=O)N1CC[C@H](Oc2cc(-c3cc(F)c(O)c(F)c3)cc3[nH]ncc23)C1 [Compound 1-14] |  | A (a value of 3 or above) |  |  | < 0.0001 µM | > 0.1 µM | 0.0316 to 0.2 µM |  |  |  |
| C=CC(=O)N1CC(Oc2nc(-c3ccc(O)cc3)nc3[nH]ncc23)C1 [Compound 5-20] | B (a pKi value between 9 and 10 (Ki between 1 nM and 0.1 nM)) |  | E (a pKi value of 7 or below (Ki of 100 nM or above)) |  |  |  |  | A (a value of 3 or above) | C (a pIC50 value between 6 and 6.7 (IC50 between 1 μM and 200 nM)) |  |
| C=CC(=O)N1CC(CC)(COc2cc(-c3ccc(O)c(F)c3)cc3[nH]ncc23)C1 [Compound 3-18] | A (a pKi value≥10 (Ki≤0.1 nM)) | A (a value of 3 or above) | E (a pKi value of 7 or below (Ki of 100 nM or above)) | B (a pIC50 value between 6.7 (included) and 7.5 (IC50 between 200 nM and 32 nM)) |  |  |  |  |  |  |
| C=CC(=O)N1CC(Oc2cc(-c3ccc(O)cc3)nc3[nH]ncc23)C1 [Compound 5-15] | A (a pKi value≥10 (Ki≤0.1 nM)) | A (a value of 3 or above) | E (a pKi value of 7 or below (Ki of 100 nM or above)) | B (a pIC50 value between 6.7 (included) and 7.5 (IC50 between 200 nM and 32 nM)) |  |  |  |  |  |  |
| CN(C)C/C=C/C(=O)N1CCO[C@H](C(=O)Nc2cc(-c3ccc(O)cc3)cc3[nH]ncc23)C1 [Compound 11-2] | B (a pKi value between 9 and 10 (Ki between 1 nM and 0.1 nM)) |  | E (a pKi value of 7 or below (Ki of 100 nM or above)) |  |  |  |  | A (a value of 3 or above) | C (a pIC50 value between 6 and 6.7 (IC50 between 1 μM and 200 nM)) |  |
| CN(C)C/C=C/C(=O)N1CC[C@H](Oc2cc(-c3ccc(O)cc3)cc3[nH]nc(Cl)c23)C1 [Compound 1-48] | C (a pKi value between 8 and 9 (Ki between 10 nM and 1 nM)) | B (a value of 2.3 to 3) | E (a pKi value of 7 or below (Ki of 100 nM or above)) | B (a pIC50 value between 6.7 (included) and 7.5 (IC50 between 200 nM and 32 nM)) |  |  |  |  |  |  |
| CN(C)C/C=C/C(=O)N1CC[C@@H](Sc2cc(-c3ccc(O)cc3)cc3[nH]ncc23)C1 [Compound 12-3] |  |  |  |  | 0.0001 to 0.001 µM | 0.01 to 0.1 µM |  | B (a value of 2.3 to 3) |  | 0.2 to 1 µM |
| CN(C)CC=CC(=O)N1C2CCC1CC(Oc1cc(-c3ccc(O)c(F)c3)cc3[nH]ncc13)C2 (stereo not shown) [Compound 9-5] | B (a pKi value between 9 and 10 (Ki between 1 nM and 0.1 nM)) |  | D (a pKi value between 7 and 8 (Ki between 100 nM and 10 nM)) |  |  |  |  | C (a value of 1.8 to 2.3) | C (a pIC50 value between 6 and 6.7 (IC50 between 1 μM and 200 nM)) |  |
| C=CC(=O)N1CC(COc2nc(-c3ccc(O)cc3)cc3[nH]ncc23)C1 [Compound 3-29] | B (a pKi value between 9 and 10 (Ki between 1 nM and 0.1 nM)) | A (a value of 3 or above) | E (a pKi value of 7 or below (Ki of 100 nM or above)) | A (a pIC50 value≥7.5 (IC50≤32 nM)) |  |  |  |  |  |  |
| C=CC(=O)N1CCC(COc2cc(-c3ccc(O)c(F)c3)cc3[nH]ncc23)CC1 [Compound 14-5] | B (a pKi value between 9 and 10 (Ki between 1 nM and 0.1 nM)) |  | D (a pKi value between 7 and 8 (Ki between 100 nM and 10 nM)) |  |  |  |  | B (a value of 2.3 to 3) | A (a pIC50 value≥7.5 (IC50≤32 nM)) |  |
| C=CC(=O)N1CC(CC)(COc2cc(-c3ccc(O)c(Cl)c3)cc3[nH]ncc23)C1 [Compound 3-16] | A (a pKi value≥10 (Ki≤0.1 nM)) | A (a value of 3 or above) | E (a pKi value of 7 or below (Ki of 100 nM or above)) | B (a pIC50 value between 6.7 (included) and 7.5 (IC50 between 200 nM and 32 nM)) |  |  |  |  |  |  |
| CN(C)C/C=C/C(=O)N1CC[C@H](Oc2cc(-c3ccc(O)c(F)c3)cc3[nH]ncc23)C1 [Compound 1-4] |  | A (a value of 3 or above) |  |  | 0.0001 to 0.001 µM | > 0.1 µM | 0.2 to 1 µM |  |  |  |
| C=CC(=O)N1CC2(CCC2Oc2nc(-c3ccc(O)c(Cl)c3)nc3[nH]ncc23)C1 (stereo not shown) [Compound 13-17] | A (a pKi value≥10 (Ki≤0.1 nM)) |  | E (a pKi value of 7 or below (Ki of 100 nM or above)) |  |  |  |  | A (a value of 3 or above) | B (a pIC50 value between 6.7 (included) and 7.5 (IC50 between 200 nM and 32 nM)) |  |
| C=CC(=O)N1CC[C@H](COc2cc(-c3ccc(O)cc3)nc3[nH]ncc23)C1 [Compound 2-6] | A (a pKi value≥10 (Ki≤0.1 nM)) | A (a value of 3 or above) | E (a pKi value of 7 or below (Ki of 100 nM or above)) | C (a pIC50 value between 6 and 6.7 (IC50 between 1 μM and 200 nM)) |  |  |  |  |  |  |
| C=CC(=O)N1CC[C@H](Oc2cc(-c3ccc(O)cc3)nc3[nH]ncc23)C1 [Compound 1-9] | A (a pKi value≥10 (Ki≤0.1 nM)) | A (a value of 3 or above) | E (a pKi value of 7 or below (Ki of 100 nM or above)) | C (a pIC50 value between 6 and 6.7 (IC50 between 1 μM and 200 nM)) |  |  |  |  |  |  |
| CN(C)C/C=C/C(=O)N1CC(Oc2cc(-c3ccc(O)cc3)cc3[nH]ncc23)(C2CC2)C1 [Compound 5-13] | B (a pKi value between 9 and 10 (Ki between 1 nM and 0.1 nM)) | B (a value of 2.3 to 3) | E (a pKi value of 7 or below (Ki of 100 nM or above)) | B (a pIC50 value between 6.7 (included) and 7.5 (IC50 between 200 nM and 32 nM)) |  |  |  |  |  |  |
| C=CC(=O)N1CC[C@H](Oc2cc(-c3ccc(O)cc3)cc3[nH]nc(N(C)C)c23)C1 [Compound 1-42] |  | A (a value of 3 or above) |  |  | 0.0001 to 0.001 µM | > 0.1 µM | 0.2 to 1 µM |  |  |  |
